Results: US20250376691A1, “FLOTATION OF CULTURED EMBRYO EXPLANTS FOR IMPROVED PLANT REGENERATION EFFICIENCY” (Monsanto Technology LLC, priority 2022, published 2025)

System: corn seed excised explants
Assay: Agrobacterium-mediated transformation and shoot/plant regeneration of corn seed excised explants (shoot frequency, normal shoot frequency, normal plant frequency)
Format: cell-based
Procedure: The shoot frequency was calculated as the number of inoculated explants producing shoots divided by the total number of inoculated explants.
The shoot frequency was calculated as the number of inoculated explants producing shoots divided by the total number of inoculated explants. […] The normal shoot frequency was calculated as the number of normal shoots divided by the total number of inoculated explants.

Compound: O=C(O)COc1ccc(Cl)cc1Cl [2,4-D, 2,4-dichlorophenoxyacetic acid]
- average normal plant frequency when 2,4-D was present in co-culture medium (4 and 5 day co-culture combined): 0.73%
- average normal plant frequency (%), 2,4-D Present in Co-Culture (co-culture 4 days): 0.85%
- average normal plant frequency (%), 2,4-D Present in Co-Culture (co-culture 5 days): 0.5%
- Fold Increase in normal plant frequency without 2,4-D versus with 2,4-D, overall/average (co-culture medium, 17 experiments): 1.8
